Measurements taken from patent US20240016781A1, “TREATMENT OF KRAS MUTANT CANCERS” (MEI Pharma, Inc., priority 2020, published 2024).
Values belong to the compound of their own block, whether it stands above or below them.

Key:
MIA PaCa-2 = assay: 72-hour CellTiter-Glo 2.0 growth inhibition screen (single agent, 9x9 combination dose matrix); assay type: cell-based; conditions: MIA PaCa-2, Pancreas, 72 h
NCI-H2030 = assay: as above; assay type: cell-based; conditions: NCl-H2030, Lung, 72 h
NCI-H1373 = assay: as above; assay type: cell-based; conditions: NCl-H1373, Lung, 72 h
Calu-1 = assay: as above; assay type: cell-based; conditions: Calu-1, Lung, 72 h
NCI-H1792 = assay: as above; assay type: cell-based; conditions: NCl-H1792, Lung, 72 h
in vivo = conditions: SCID, mouse
Description: Animals were randomized into 2 groups when tumors reached 100 mm diameter. Group A assigned single dosing. […] Drug concentration was measured in tumor and plasma after last dose at the following time points: 0, 4, 8, 24, 48, 72 hrs. […] Concentration of voruciclib in plasma is in units of μg/ml and in μg/g for tumors.

Huh-7 xenografts = assay: CIVO intratumoral microinjection, Huh-7 xenografts; assay type: in vivo; conditions: Huh-7 liver cancer model
Description: FIG. 6 depicts the CIVO injection array.
CC3 is not elevated over background levels at any injection site.

[1] = Additional Single Agent Responses (inhibition, % I)
[2] = Additional Single Agent Responses
[3] = growth inhibition (GI) curve, single agent
[4] = growth inhibition (GI), AUC, single agent
[5] = growth inhibition (GI), single agent

EC50 (MIA PaCa-2; [1]): 0.894 µM | IC50 (MIA PaCa-2; [1]): 1.07 µM | EC50 (MIA PaCa-2; [3]): 1.13 µM | GI50 (MIA PaCa-2; [3]): 0.868 µM | EC50 (NCI-H2030; [1]): 1.05 µM | IC50 (NCI-H2030; [1]): 1.06 µM | EC50 (NCI-H2030; [3]): 1.68 µM | GI50 (NCI-H2030; [3]): 1.13 µM | EC50 (NCI-H1373; [1]): 1.03 µM | IC50 (NCI-H1373; [1]): 1.23 µM | EC50 (NCI-H1373; [3]): 1.39 µM | GI50 (NCI-H1373; [3]): 0.972 µM | EC50 (Calu-1; [1]): 1.86 µM | IC50 (Calu-1; [1]): 1.98 µM | EC50 (Calu-1; [3]): 2.07 µM | GI50 (Calu-1; [3]): 1.68 µM | EC50 (NCI-H1792; [1]): 1.35 µM | IC50 (NCI-H1792; [1]): 1.36 µM | EC50 (NCI-H1792; [3]): 1.91 µM | GI50 (NCI-H1792; [3]): 1.44 µM
SMILES: CN1CC[C@@H](c2c(O)cc(O)c3c(=O)cc(-c4ccc(C(F)(F)F)cc4Cl)oc23)[C@@H]1CO [MEI-522(Voruciclib)]
Response Area (MIA PaCa-2; [1]): 2.64 | Max Response (% I) (MIA PaCa-2; [2]): 85 % I | Response Area (MIA PaCa-2; [4]): 3.63 | Max Response (% GI) (MIA PaCa-2; [5]): 116 % GI | Response Area (NCI-H2030; [1]): 2.92 | Max Response (% I) (NCI-H2030; [2]): 98 % I | Response Area (NCI-H2030; [4]): 5.28 | Max Response (% GI) (NCI-H2030; [5]): 188 % GI | Response Area (NCI-H1373; [1]): 2.58 | Max Response (% I) (NCI-H1373; [2]): 86 % I | Response Area (NCI-H1373; [4]): 4.24 | Max Response (% GI) (NCI-H1373; [5]): 147 % GI | Response Area (Calu-1; [1]): 2.48 | Max Response (% I) (Calu-1; [2]): 90 % I | Response Area (Calu-1; [4]): 4.35 | Max Response (% GI) (Calu-1; [5]): 159 % GI | Response Area (NCI-H1792; [1]): 2.83 | Max Response (% I) (NCI-H1792; [2]): 98 % I | Response Area (NCI-H1792; [4]): 5.24 | Max Response (% GI) (NCI-H1792; [5]): 192 % GI

Kp (in vivo): > 5
SMILES: CN1CC[C@@H](c2c(O)cc(O)c3c(=O)cc(-c4ccc(C(F)(F)F)cc4Cl)oc23)[C@@H]1CO [Voruciclib, (+)-trans-2-(2-Chloro-4-trifluoromethylphenyl)-5,7-dihydroxy-8-(2-hydroxymethyl-1-methylpyrrolidin-3-yl)-chromen-4-one]
apoptotic cells (CC3) (Huh-7 xenografts): do not result in an increase in apoptotic cells
